Measured values from patent US8165823B2, “Pamps, pathogen associated molecular patterns” (Novartis AG, priority 2005, dated 2012).

How the values were obtained:
cells in vitro = settings: cited from earlier work
[1] = test system: human monocytic cell line THP-1; assay: Cytokine production by THP-1 cells after peptide stimulation; type: cell-based; settings: for Cytokine production IL-1β / Cytokine production IL-8 / Cytokine production TNF-α: culture supernatant after 18 hours with peptide
Procedure: (§1) For the assay, the human cells used were cultured at 1 million cells/ml in 96-well plates with the peptides in complete RPMI medium with 5% FBS. After culture for 18 hours at 37° C. and 5% CO2, the culture supernatants were measured for the cytokines generated by the cells with an Upstate multiplex cytokine kit.

[2] = test system: primary human peripheral blood mononuclear cells (hPBMC); assay: Cytokine production by primary hPBMC after peptide stimulation; type: cell-based
Procedure: The possible combinations of sequences included PDCGLR, PDCGLK, PDCGMR, and PDCGMK. […] Therefore, the specific peptide sequence PDCGLR, which was identified as a bacterial signature found commonly in bacterial proteins but not in Drosophila, is recognised by the human immune system as a PAMP.
as §1

[3] = hPBMC #1643, culture supernatant after 18 hours with peptide

Substance | Induction of cytokine production from cells in vitro (cells in vitro) | Cytokine production IL-1β [1] [pg/mL] | Cytokine production IL-8 [1] [pg/mL] | Cytokine production TNF-α [1] [pg/mL] | Adjuvant activity, as measured by the specific production of cytokines (IL1-β, IL-8 and TNFα) [1] | Cytokine production (IL-6 and TNFα) ([2]; hPBMC) | Cytokine production IL-6 [2, 3] [pg/mL] | Cytokine production TNF-α [2, 3] [pg/mL]
ALTTE [5-mer peptide from a bacterial fimbriae protein] | shown to induce cytokine production from cells in vitro | – | – | – | – | – | – | –
PDCGMK | – | 1.59 | 19.28 | <1 | – | – | – | –
PDCGLK | – | 1.33 | 24.29 | <1 | – | – | – | –
PDCGMR | – | 1.61 | 25.71 | <1 | – | – | – | –
PDCGLR | – | 11.32 | 171.11 | 4.42 | adjuvant activity was observed | cytokine production (IL-6 and TNFα) was also demonstrated | 31.42 | 3.6
